Measured values reported in paper PMC3290551, “Core Site-Moiety Maps Reveal Inhibitors and Binding Mechanisms of Orthologous Proteins by Screening Compound Libraries” (PLoS ONE, 2012).
Values joined by “and” are separate entries in the source; they are usually repeats but may differ in a detail not shown here. Equal entries are not always repeated. Where two headings read alike, the source gives them in different places.

What was measured:
Assay type in all cases: biochemical
[1] = target: T1, H. pylori shikimate kinase (HpSK) (Helicobacter pylori, UniProt P56073); assay: Shikimate kinase coupled enzyme inhibition assay (HpSK); details: for IC50: 1.6 mM shikimic acid, 2.5 mM ATP, 25°C, pH 7.5; for Inhibitory effect against shikimate kinase (in words): HpSK
T1 construct: made in house; host or cells: Escherichia coli (stated for the mutants, which followed the wild-type procedure)

[2] = target: T2, M. tuberculosis shikimate kinase (MtSK) (Mycobacterium tuberculosis, UniProt P9WPY3); assay: Shikimate kinase coupled enzyme inhibition assay (MtSK); details: for IC50: SK species: Mt, 1.6 mM shikimic acid, 2.5 mM ATP, 25°C, pH 7.5; for Inhibitory effect against shikimate kinase (in words): MtSK
T2 construct: His6 (N); made in house; host or cells: E. coli BL-21 (DE3)

[3] = target: T1, H. pylori shikimate kinase (HpSK); assay: Analysis of inhibitor kinetics / inhibitor modality (HpSK); details: for Inhibitor modality with respect to ATP / Inhibitor modality with respect to shikimate: HpSK; for Ki: SK species: Hp
Procedure: (§1) Shikimate kinase activity was determined by coupling the release of ADP from the SK-catalyzed reaction to the oxidation of NADH using pyruvate kinase (EC 2.7.1.40) and lactate dehydrogenase (EC 1.1.1.27) as coupling enzymes. Shikimate-dependent oxidation of NADH was measured by monitoring the decrease in A340 (ε = 6,200 M^−1 cm^−1). The assay was carried out at 25°C in a mixture of 100 mM Tris-HCl buffer, pH 7.5, 50 mM KCl, 5 mM MgCl2, 1.6 mM shikimic acid, 2.5 mM ATP, 1 mM phosphoenolpyruvate (PEP), 0.1 mM NADH, 2.5 units of pyruvate kinase per ml, and 2.7 units of lactate dehydrogenase per ml. All assays were conducted in a 96-well microplate and analyzed with a spectrophotometer (FLUOstar OPTIMA, BMG LABTECH).
(§2) After the preliminary screening, the inhibitor modality was determined by measuring the effects of inhibitor concentrations on the enzymatic activity as a function of substrate concentration. In the inhibition experiment in which the ATP concentration was fixed at 2.5 mM, shikimate was a varied substrate (0.06, 0.12, 0.24, 0.48, and 0.96 mM) when the concentration of inhibitor was varied from 0 to 50 µM. In parallel, in the inhibition experiment in which the shikimate concentration was fixed at 1.6 mM, ATP was a varied substrate (0.06, 0.12, 0.24, 0.48, and 0.96 mM) when the concentration of inhibitor was varied from 0 to 50 µM. A nonlinear least square-fitting algorithm was applied to the absorbance data to determine the kinetic mechanism data.

[4] = target: T2, M. tuberculosis shikimate kinase (MtSK); assay: Analysis of inhibitor kinetics / inhibitor modality (MtSK); details: for Inhibitor modality with respect to ATP / Inhibitor modality with respect to shikimate: MtSK; for Ki: SK species: Mt
Procedure: as §1, §2

[5] = ATP varied, shikimate fixed at 1.6 mM, read-out: αKi, ATP
[6] = shikimate varied, ATP fixed at 2.5 mM, read-out: αKi, SKM

T2 sequence (P9WPY3 whole entry): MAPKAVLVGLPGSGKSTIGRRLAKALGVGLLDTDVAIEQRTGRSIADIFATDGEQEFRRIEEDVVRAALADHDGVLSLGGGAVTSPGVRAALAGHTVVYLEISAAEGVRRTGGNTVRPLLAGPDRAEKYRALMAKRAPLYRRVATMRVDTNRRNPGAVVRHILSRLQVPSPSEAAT
T1 sequence (P56073 whole entry): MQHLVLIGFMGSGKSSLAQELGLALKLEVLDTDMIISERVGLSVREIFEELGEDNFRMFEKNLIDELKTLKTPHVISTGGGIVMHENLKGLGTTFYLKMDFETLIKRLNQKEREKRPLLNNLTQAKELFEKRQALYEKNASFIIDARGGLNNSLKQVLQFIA

With `O=C(Nc1ccc2c(O)cc(S(=O)(=O)O)cc2c1)Nc1ccc2c(O)cc(S(=O)(=O)O)cc2c1` [NSC45174] the IC50 ([1]; IC50, SK species: Hp) was ≤ 10 µM and 7.8 µM and the IC50 [2] was ≤ 10 µM and 2.8 µM.
With `O=C(Nc1ccc2c(O)c(/N=N/c3ccc4c(O)cc(S(=O)(=O)O)cc4c3)c(S(=O)(=O)O)cc2c1)c1ccccc1` [NSC45609] the IC50 ([1]; SK species: Hp) was ≤ 10 µM and 7 µM.
With `O=C1Nc2ccc(I)cc2/C1=C/c1cc(Br)c(O)c(Br)c1` [GW5074, reference compound] the “Inhibitory effect against shikimate kinase (in words)” value (from here on “Inhibitory effect”) [1] was “showed inhibitory effects”, the IC50 ([1]; IC50, SK species: Hp) was 31.4 µM and the “Inhibitory effect” value [2] was “showed inhibitory effects”. For the same molecule, the IC50 [2] was 29.6 µM.
In the case of `Nc1ccc2c(O)c(/N=N/c3ccc([N+](=O)[O-])cc3)c(S(=O)(=O)O)cc2c1` [NSC45547], the IC50 ([1]; SK species: Hp) is reported as ≤ 10 µM and 7.8 µM.
`O=C(NNC(=O)C1c2ccccc2Oc2ccccc21)c1cccc(F)c1` [RH00016] was tested, and the IC50 ([1]; IC50, SK species: Hp) was 40.2 µM and the IC50 [2] was < 100 µM.
In the case of `O=S(=O)(O)c1cc(O)c2c(O)c(N=Nc3cccc4ccccc34)c(S(=O)(=O)O)cc2c1` [NSC45208], the “Inhibitory effect” value [1] is reported as “lost the inhibitory”, the IC50 ([1]; IC50, SK species: Hp) is reported as > 100 µM and the “Inhibitory effect” value [2] is reported as “lost the inhibitory”. For the same molecule, the IC50 [2] was > 100 µM.
`Cc1cc(N=Nc2ccc(N=Nc3ccc(N=Nc4ccc(O)c(C(=O)O)c4)cc3)c(S(=O)(=O)O)c2C)c(N)cc1N` [NSC45611] was tested, and the IC50 ([1]; IC50, SK species: Hp) was ≤ 10 µM and 4.8 µM, the IC50 [2] was ≤ 10 µM and 1.5 µM and the “Inhibitor modality with respect to ATP” value [3] was “competitive inhibitors of ATP”. The “Inhibitor modality with respect to shikimate” value [3] was “competed with shikimate”, the Ki ([3]; αKi, ATP, ATP varied, shikimate fixed at 1.6 mM) was 1.1 µM and the Ki ([3]; αKi, SKM, shikimate varied, ATP fixed at 2.5 mM) was 1.7 µM. For the same molecule, the “Inhibitor modality with respect to ATP” value [4] was “competitive inhibitors of ATP”, the “Inhibitor modality with respect to shikimate” value [4] was “competed with shikimate” and the Ki [4, 5] was 0.3 µM. The Ki [4, 6] was 0.7 µM.
For `N=C(NO)c1ccc(Oc2cc(Cl)cc(Cl)c2)c([N+](=O)[O-])c1` [SPB01099], the IC50 ([1]; SK species: Hp) was < 100 µM and the IC50 [2] was < 100 µM.
For `O=C(NNC(=O)C1c2ccccc2Oc2ccccc21)c1cccc([N+](=O)[O-])c1` [RH00037], the IC50 ([1]; IC50, SK species: Hp) was 23.8 µM and the IC50 [2] was < 100 µM.
With `O=C(Nc1ccc(C(=O)Nc2ccc3c(O)cc(S(=O)(=O)O)cc3c2)cc1)c1ccccc1` [NSC37215] the “Inhibitory effect” value [1] was “lost the inhibitory”, the IC50 ([1]; IC50, SK species: Hp) was > 100 µM and the “Inhibitory effect” value [2] was “lost the inhibitory”. For the same molecule, the IC50 [2] was > 100 µM.
For `Nc1ccc2c(O)c(N=Nc3ccc4c(O)cc(S(=O)(=O)O)cc4c3)c(S(=O)(=O)O)cc2c1` [NSC162535], the “Inhibitor modality with respect to ATP” value [3] was “competitive inhibitors of ATP”, the “Inhibitor modality with respect to shikimate” value [3] was “competed with shikimate” and the Ki ([3]; read-out: αKi, ATP, ATP varied, shikimate fixed at 1.6 mM) was 1.9 µM. The Ki ([3]; read-out: αKi, SKM, shikimate varied, ATP fixed at 2.5 mM) was 1.8 µM, the “Inhibitor modality with respect to ATP” value [4] was “competitive inhibitors of ATP” and the “Inhibitor modality with respect to shikimate” value [4] was “competed with shikimate”. For the same molecule, the Ki [4, 5] was 0.2 µM and the Ki [4, 6] was 0.6 µM.
